Results: patent US11076593B2, “Reperfusion with omega-3 glycerides promotes donor organ protection for transplantation” (The Trustees of Columbia University in the City of New York, priority 2013, dated 2021)

Experiments:
[1] = tested on: isolated C57BL/6 mouse hearts; assay: Ex vivo I/R: release of injury markers (LDH, creatine kinase) into the perfusate
Description: Evidence supporting the methods and products of the invention has been established in an ex vivo model using hearts rapidly removed from ketamine/xylazine anesthetized 12-14 weeks old C57BL/6 mice weighing between 25-30 g that were retrograde perfused in a non-recirculating mode, using an isovolumic perfusion system through the well-known Langendorf System (FIG. 1). In this system isolated mouse hearts were initially perfused with a perfusion buffer containing KREB's solution containing (in mM) the following: 118 NaCl, 4.7 KCl, 2.5 CaCl2, 1.2 MgCl2, 25 NaHCO3, 5 Glucose, 0.4 Palmitate, 0.4 BSA, and 70 mU/1 insulin. […]
After the induced ischemia, control hearts were reperfused using the same Kreb's buffer. […] TG fatty acid (FA) composition (by weight) of the emulsion used in experiments 1-9 was determined by gas liquid chromatography and was as follows for the n-3 emulsion: C14:0, 5.4%; C16:0, 14.8%; C16:1, 8.4%; C18:0, 2.8%; C18:1, 12.7%; C18:2 (n-6), 2.6%; C18:3 (n-3), 0.8%; C20:1, 1.2%; C20:4 (n-6), 1.9%; C20:5 (EPA, n-3), 18.3%; C22:1, 0.2%; C22:4, 0.6%; C22:5, 2.6%; and C22:6 ([…], n-3), 27.7. […]
Myocardial injury was assessed by measuring the release of lactate dehydrogenase (LDH) from the effluent in the ex vivo I/R system and from blood samples in the in vivo LAD system, using the commercially available enzymatic kits (Pointe Scientific, INC, MI USA) as published earlier.^1,2 […]

[2] = tested on: p10 C57BL/6J neonatal mice, cerebral H/I; assay: Unilateral cerebral hypoxia-ischemia (H/I) in neonatal mice, TTC infarct volume at 24 hr; type: in vivo, mouse; details: pre-H/I protocol, two i.p. doses; 24 hr reperfusion
Description: Three-day-old C57BL/6J neonatal mice of both genders were purchased from Jackson Laboratories (Bar Harbor, Me.) with their birth mother. The Rice-Vannucci model of H/I was used and modified to p10 neonatal mice.^5 Briefly, on postnatal day 10 H/I was induced by the ligation of the right common carotid artery, which was further cauterized and cut under isoflurane anesthesia. The investigator was blinded to the lipid emulsion treatment during the surgery and after the surgery. The entire surgical procedure was completed within 5 min for each mouse. Pups were then allowed to recover with their dams for 1.5 hr. Surrounding temperature during experiments was kept at 28° C. Mice were then exposed to systemic hypoxia for 15 min in a hypoxic chamber in a neonatal isolette (humidified 8% oxygen/nitrogen, Tech Air Inc., White Plains, N.Y.).^5 The ambient temperature inside the chamber during hypoxia was stabilized at 37±0.3° C. […]
After 24 hr of reperfusion, the animals were sacrificed by decapitation and brains were immediately harvested. […] Using Adobe Photoshop and NIH Image J imaging applications, planar areas of infarction on serial sections were summed to obtain the volume (mm^3) of infarcted tissue, which was divided by the total (infarcted+non-infarcted) volume of the hemisphere ipsilateral to carotid artery ligation, and expressed as a percentage of total volume. […]

| SMILES | LDH release compared to I/R control hearts ([1]; SB-216763 (3 μM) plus 0.3% n-3 TG emulsion) | LDH release (fold change) compared to I/R control ([1]; inhibitor alone, from baseline through ischemia and reperfusion, 10 μM LY-294002, 3 μM SB216763) | infarct volume compared to saline control [2] |
| --- | --- | --- | --- |
| Cn1cc(C2=C(c3ccc(Cl)cc3Cl)C(=O)NC2=O)c2ccccc21 [SB216763] | significantly inhibited LDH release | significantly inhibited LDH release | – |
| Cc1c(C)c2c(c(C)c1O)CC[C@@](C)(CCC[C@H](C)CCC[C@H](C)CCCC(C)C)O2 [alpha-tocopherol] | – | – | no significant difference |
